Counter-ions that a name gives are not always drawn.
These molecules were tested on LAMA-84 (assay: cell viability (% survival relative to DMSO control, bortezomib = 0%); higher = less cytotoxic). Settings: 1000 nM; 72 h.
Procedure, shortened: (§1)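 Fifteen myeloid leukaemia cell lines were exposed to compounds at 1, 10, 100, 1000 or 10000 nM in 384-well plates for 72 h at 37 °C and 5% CO2. Viability was read by CellTiter-Glo luminescence and normalised, with vehicle as 100% and a 10 µM positive control as 0%. Values are percent survival averaged over duplicates.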

| Compound | cell viability [%] |
| --- | --- |
| CC(C)CC(=O)N[C@H](C(=O)N[C@H](C(=O)N[C@@H](CC(C)C)[C@@H](O)CC(=O)N[C@@H](C)C(=O)N[C@@H](CC(C)C)[C@@H](O)CC(=O)O)C(C)C)C(C)C [Pepstatin A] | 96.2 |
| Cc1cccc(Nc2cc(Cl)nc(SCC(=O)O)n2)c1C [Pirinixic acid] | 94.5 |
| C[C@]12C=CC(=O)C=C1CC[C@@H]1[C@@H]2[C@@H](O)C[C@@]2(C)[C@H]1CC[C@]2(O)C(=O)CO [Prednisolone] | 88.5 |
| N[C@@H](CC(=O)N1CCn2c(nnc2C(F)(F)F)C1)Cc1cc(F)c(F)cc1F [Sitagliptin] | 102 |
| CCCc1nc(C)c2c(=O)nc(-c3cc(S(=O)(=O)N4CCN(CC)CC4)ccc3OCC)[nH]n12 [Vardenafil] | 92.2 |
| CCc1c(C(=O)C(N)=O)c2c(OCC(=O)O)cccc2n1Cc1ccccc1 [Varespladib] | 101 |
| N#Cc1ccc(N(Cc2ccc(Br)cc2)n2cnnc2)cc1 [YM511] | 101 |
| N#C/C(=C\c1ccc(O)cc1)C(=O)O [alpha-cyano-4-hydroxycinnamic acid] | 101 |

Same assay, conditions: 10000 nM; 72 h

| Compound | cell viability [%] |
| --- | --- |
| CN(CCCOc1ccc(Cc2ccccc2)cc1)CCC(=O)O | 91.9 |
| COc1ccc2c(NC(=O)Nc3cccc(C(F)(F)F)n3)ccnc2c1 | 100 |
| Cc1nc(-c2ccccc2)sc1C(=O)Nc1ccc(S(N)(=O)=O)cc1 | 111 |
| C=CC(=O)c1ccc(O)cc1 [4-Acryloylphenol] | 56.7 |
| O=c1cc(-c2ccccc2)oc2c1ccc1ccccc12 [Alpha-Naphtoflavone] | 94.4 |
| Cc1c(Cl)cccc1S(=O)(=O)Nc1nc(CC(=O)N2CCN(C)CC2)cs1 [BVT-2733] | 99.9 |
| CCc1oc2ccccc2c1C(=O)c1cc(Br)c(O)c(Br)c1 [Benzbromarone] | 107 |
| CCOC(=O)c1sc(NC(=O)c2ccco2)c(SC#N)c1C [CBR-5884] | 99.1 |
| CCCCCOC(=O)Nc1nc(=O)n([C@@H]2O[C@H](C)[C@@H](O)[C@H]2O)cc1F [Capecitabine] | 99.9 |
| Cc1ccc(-c2cc(C(F)(F)F)nn2-c2ccc(S(N)(=O)=O)cc2)cc1 [Celecoxib] | 79.6 |
| O=c1c(-c2ccc(O)cc2)coc2cc(O[C@@H]3O[C@H](CO)[C@@H](O)[C@H](O)[C@H]3O)ccc12 [Daidzin] | 97.9 |
| C[C@H]1c2cccc(O)c2C(=O)C2C(=O)[C@]3(O)C(=O)C(C(N)=O)C(=O)[C@@H](N(C)C)[C@@H]3[C@@H](O)[C@@H]21 (stereo partly specified) [Doxycycline] | 66.1 |
| OC[C@H]1NC[C@H](O)[C@@H](O)[C@@H]1O [Duvoglustat] | 106 |
| O=C(NCCN1CCC(n2c(O)nc3ccccc32)CC1)c1cc2cc(F)ccc2[nH]1 [FIPI] | 70.5 |
| CCN(CCO)CCCC(C)Nc1ccnc2cc(Cl)ccc12 (stereo unspecified) [Hydroxychloroquine sulfate] | 93.6 |
| O=C([O-])CC(O)(C(=O)[O-])C(O)C(=O)[O-].[K+].[K+].[K+] (stereo unspecified) [Hydroxycitrate] | 96.4 |

| Compound | cell viability [%] |
| --- | --- |
| CCCCCN(C)CCC(O)(P(=O)(O)O)P(=O)(O)O [Ibandronate] | 103 |
| Cc1cc(C(=O)NNCc2ccccc2)no1 [Isocarboxazid] | 95.8 |
| CCn1c(=Cc2cccc[n+]2CC)sc(=C2Sc3ccccc3N2C)c1=O [MKT 077] | 71.6 |
| COC(=O)c1cc2c(C(F)(F)F)cc(-c3ccccc3)cc2n1O [NHI-2] | 76.4 |
| CCCCCCCC/C=C\CCCCCCCC(=O)Nc1ccccc1 [Octadec-9-Enoic Acid Phenylamide] | 99.4 |
| CC[C@H](C)[C@H](N)C(=O)N1CCSC1 [P32/98] | 103 |
| OC[C@H]1O[C@@H](n2cnc3c2N=CNC[C@H]3O)C[C@@H]1O [Pentostatin] | 108 |
| CC(C)CC(=O)N[C@H](C(=O)N[C@H](C(=O)N[C@@H](CC(C)C)[C@@H](O)CC(=O)N[C@@H](C)C(=O)N[C@@H](CC(C)C)[C@@H](O)CC(=O)O)C(C)C)C(C)C [Pepstatin A] | 103 |
| Cc1cccc(Nc2cc(Cl)nc(SCC(=O)O)n2)c1C [Pirinixic acid] | 95 |
| C[C@]12C=CC(=O)C=C1CC[C@@H]1[C@@H]2[C@@H](O)C[C@@]2(C)[C@H]1CC[C@]2(O)C(=O)CO [Prednisolone] | 81.5 |
| N[C@@H](CC(=O)N1CCn2c(nnc2C(F)(F)F)C1)Cc1cc(F)c(F)cc1F [Sitagliptin] | 93.8 |
| CCCc1nc(C)c2c(=O)nc(-c3cc(S(=O)(=O)N4CCN(CC)CC4)ccc3OCC)[nH]n12 [Vardenafil] | 97.8 |
| CCc1c(C(=O)C(N)=O)c2c(OCC(=O)O)cccc2n1Cc1ccccc1 [Varespladib] | 81.3 |
| N#Cc1ccc(N(Cc2ccc(Br)cc2)n2cnnc2)cc1 [YM511] | 103 |
| N#C/C(=C\c1ccc(O)cc1)C(=O)O [alpha-cyano-4-hydroxycinnamic acid] | 101 |

Each molecule was assayed on MV4-11 in the same assay as above. Settings: 1 nM; 72 h.
Procedure, shortened: as §1

| Compound | cell viability [%] |
| --- | --- |
| CN(CCCOc1ccc(Cc2ccccc2)cc1)CCC(=O)O | 99.1 |
| COc1ccc2c(NC(=O)Nc3cccc(C(F)(F)F)n3)ccnc2c1 | 102 |
| Cc1nc(-c2ccccc2)sc1C(=O)Nc1ccc(S(N)(=O)=O)cc1 | 106 |
| C=CC(=O)c1ccc(O)cc1 [4-Acryloylphenol] | 91 |
| O=c1cc(-c2ccccc2)oc2c1ccc1ccccc12 [Alpha-Naphtoflavone] | 106 |
| Cc1c(Cl)cccc1S(=O)(=O)Nc1nc(CC(=O)N2CCN(C)CC2)cs1 [BVT-2733] | 107 |
| CCc1oc2ccccc2c1C(=O)c1cc(Br)c(O)c(Br)c1 [Benzbromarone] | 107 |
| CCOC(=O)c1sc(NC(=O)c2ccco2)c(SC#N)c1C [CBR-5884] | 79.9 |
| CCCCCOC(=O)Nc1nc(=O)n([C@@H]2O[C@H](C)[C@@H](O)[C@H]2O)cc1F [Capecitabine] | 98.2 |
| Cc1ccc(-c2cc(C(F)(F)F)nn2-c2ccc(S(N)(=O)=O)cc2)cc1 [Celecoxib] | 97.5 |
| O=c1c(-c2ccc(O)cc2)coc2cc(O[C@@H]3O[C@H](CO)[C@@H](O)[C@H](O)[C@H]3O)ccc12 [Daidzin] | 91.6 |
| C[C@H]1c2cccc(O)c2C(=O)C2C(=O)[C@]3(O)C(=O)C(C(N)=O)C(=O)[C@@H](N(C)C)[C@@H]3[C@@H](O)[C@@H]21 (stereo partly specified) [Doxycycline] | 110 |
| OC[C@H]1NC[C@H](O)[C@@H](O)[C@@H]1O [Duvoglustat] | 93.3 |
| O=C(NCCN1CCC(n2c(O)nc3ccccc32)CC1)c1cc2cc(F)ccc2[nH]1 [FIPI] | 91.3 |
| CCN(CCO)CCCC(C)Nc1ccnc2cc(Cl)ccc12 (stereo unspecified) [Hydroxychloroquine sulfate] | 78.8 |
| O=C([O-])CC(O)(C(=O)[O-])C(O)C(=O)[O-].[K+].[K+].[K+] (stereo unspecified) [Hydroxycitrate] | 81.4 |

| Compound | cell viability [%] |
| --- | --- |
| CCCCCN(C)CCC(O)(P(=O)(O)O)P(=O)(O)O [Ibandronate] | 95 |
| Cc1cc(C(=O)NNCc2ccccc2)no1 [Isocarboxazid] | 107 |
| CCn1c(=Cc2cccc[n+]2CC)sc(=C2Sc3ccccc3N2C)c1=O [MKT 077] | 113 |
| COC(=O)c1cc2c(C(F)(F)F)cc(-c3ccccc3)cc2n1O [NHI-2] | 99.7 |
| CCCCCCCC/C=C\CCCCCCCC(=O)Nc1ccccc1 [Octadec-9-Enoic Acid Phenylamide] | 118 |
| CC[C@H](C)[C@H](N)C(=O)N1CCSC1 [P32/98] | 98.7 |
| OC[C@H]1O[C@@H](n2cnc3c2N=CNC[C@H]3O)C[C@@H]1O [Pentostatin] | 95.8 |
| CC(C)CC(=O)N[C@H](C(=O)N[C@H](C(=O)N[C@@H](CC(C)C)[C@@H](O)CC(=O)N[C@@H](C)C(=O)N[C@@H](CC(C)C)[C@@H](O)CC(=O)O)C(C)C)C(C)C [Pepstatin A] | 87.7 |
| Cc1cccc(Nc2cc(Cl)nc(SCC(=O)O)n2)c1C [Pirinixic acid] | 94.5 |
| C[C@]12C=CC(=O)C=C1CC[C@@H]1[C@@H]2[C@@H](O)C[C@@]2(C)[C@H]1CC[C@]2(O)C(=O)CO [Prednisolone] | 95.2 |
| N[C@@H](CC(=O)N1CCn2c(nnc2C(F)(F)F)C1)Cc1cc(F)c(F)cc1F [Sitagliptin] | 89.2 |
| CCCc1nc(C)c2c(=O)nc(-c3cc(S(=O)(=O)N4CCN(CC)CC4)ccc3OCC)[nH]n12 [Vardenafil] | 97.9 |
| CCc1c(C(=O)C(N)=O)c2c(OCC(=O)O)cccc2n1Cc1ccccc1 [Varespladib] | 88.4 |
| N#Cc1ccc(N(Cc2ccc(Br)cc2)n2cnnc2)cc1 [YM511] | 98.9 |
| N#C/C(=C\c1ccc(O)cc1)C(=O)O [alpha-cyano-4-hydroxycinnamic acid] | 100 |

Same assay, conditions: 10 nM; 72 h

| Compound | cell viability [%] |
| --- | --- |
| CN(CCCOc1ccc(Cc2ccccc2)cc1)CCC(=O)O | 97.6 |
| COc1ccc2c(NC(=O)Nc3cccc(C(F)(F)F)n3)ccnc2c1 | 103 |
| Cc1nc(-c2ccccc2)sc1C(=O)Nc1ccc(S(N)(=O)=O)cc1 | 112 |
| C=CC(=O)c1ccc(O)cc1 [4-Acryloylphenol] | 89.9 |
| O=c1cc(-c2ccccc2)oc2c1ccc1ccccc12 [Alpha-Naphtoflavone] | 109 |
| Cc1c(Cl)cccc1S(=O)(=O)Nc1nc(CC(=O)N2CCN(C)CC2)cs1 [BVT-2733] | 95.1 |
